Test results as given in patent US20110142882A1 (priority 2009, published 2011).

Test system: small (about 50 μm-about 90 μm) arterioles of the cremaster muscle
Parameters: species or system male Sprague-Dawley rats
Conditions: rat, in vivo

In the case of `CC[N+](CC)(CC)CCOc1cccc(OCC[N+](CC)(CC)CC)c1OCC[N+](CC)(CC)CC` [gallamine triethiodide], the “effect on microvessel diameter” value is reported as “Significant vasoconstriction” and the “vasodilation over time (time-dependent effects control)” value is reported as “No vasodilation”.
